From article PMC3066212, “Functional Divergence among Silkworm Antimicrobial Peptide Paralogs by the Activities of Recombinant Proteins and the Induced Expression Profiles” (PLoS ONE, 2011)

Experiments:
[1] = system: ten tested bacteria (five Gram-positive, five Gram-negative); assay: Ultrasensitive radial diffusion, antimicrobial spectrum; type: cell-based; details: 5 µmol/L, 10 µL in 2.7 mm pore on LB-medium plates, 37°C 24 h, n = 3 (Fig. 3)
R. dolaanacearum = type: cell-based, Ralstonia dolaanacearum
X. pv. campestris = assay: Ultrasensitive radial diffusion; type: cell-based, Xanthomons pv. campestris; details: 5 µmol/L, 10 µL, 37°C 24 h (Fig. 3)
S. aureus = assay: Ultrasensitive radial diffusion; type: cell-based, Staphylococcus aureus; details: 5 µmol/L, 10 µL, 37°C 24 h (Fig. 3)
Protocol: Figure 3 The antimicrobial spectrum of paralogs among each AMP gene family. The following microbes were used to test antimicrobial activities: Gram-positive bacteria: S. aureus (Sa), B. bombysepticus (Bb), B. subtilis (Bs), B. thuringiensis (Bt), B. thuringiensis subsp. galleriae (Btsg); Gram-negative bacteria: E. coli (Ec), S. marcescens (Sm), P. aeruginosa (Pa), X. pv. campestris (Xpc), R. dolaanacearum (Rd). Each sample (5 µmol/L, 10 µL) was dropped into the 2.7 mm pore on LB-medium plates and incubated at 37°C for 24 h as shown in Figure S3 for moricin family. The measure unit is millimeter (mm). […] Differences were significant at *P<0.01 among each recombinant AMP family.
B. mori strain Dazao was from the Sericulture & Agri-Food Research Institute, Guangdong Academy of Agricultural Sciences, China. E. coli Rosetta™(DE3) strain was used to express recombinant AMPs. […]
Antimicrobial activity of purified expression products was assayed using the ultrasensitive radial diffusion method and the MICs method seeded with Gram-negative or Gram-positive bacteria. […] The size of the clear area around the bacteria was measured, as shown in Figure S3 for the moricin family. […] Absorbance at 595 nm was measured and was repeated three times, and the MICs determined when the average absorbance was equal to the control sample.

| Substance | antimicrobial spectrum among the ten tested bacteria [1] | Minimal growth inhibition concentration (MIC), R. dolaanacearum (R. dolaanacearum) [µM] | antimicrobial activity against X. pv. campestris (X. pv. campestris) | antimicrobial activity against S. aureus (S. aureus) |
| --- | --- | --- | --- | --- |
| MNFSRALFYVFAVFLVCASVMAAPEPRWKIFKKIEKVGQNIRDGIIKAGPAVAVVGQAATIAHGK [BmcecE, recombinant silkworm cecropin paralog, E subtype, two extra N-terminal residues (Ala-Met)] | five of ten tested bacteria |  |  |  |
| MNFVKILCVVLALMLALSMASAALEPKRKVFKIIEKIGRNVRGGVITAGPAVVVVGQAASVGM [BmcecC, recombinant silkworm cecropin paralog, C subtype, two extra N-terminal residues (Ala-Met)] | no ability to inhibit the growth |  |  |  |
| MNILKLFLVFMVAMSLVSCSTAAPAKIP--IKAIKTVGKAVGKGLRAINIASTANDVFNFLKPKKRKH [Bmmor, recombinant silkworm moricin, two extra N-terminal residues (Ala-Met)] | nine of ten tested bacteria | 1.25 |  |  |
| MNFVRILSFVFALVLALGAVSAAPEPRWKLFKKIEKVGRNVRDGLIKAGPAIAVIGQAKSLGK [BmcecA1, recombinant silkworm cecropin paralog, A subtype, EK-digested, two extra N-terminal residues (Ala-Met)] | five of ten tested bacteria |  |  |  |
| MNFAKILSFVFALVLALSMTSAAPEPRWKIFKKIEKMGRNIRDGIVKAGPAIEVLGSAKAIGK [BmcecB6, recombinant silkworm cecropin paralog representing B subtype, two extra N-terminal residues (Ala-Met)] | eight of ten tested bacteria |  | not inhibited | not inhibited |
| MDFLKYFIVVLVALSLMVCSGQADPKIP--VKSLKKGGKIIAKGFKVLTAAGTAHEVYSHVRNRGNQG [BmmorLA1, recombinant silkworm moricin-like A1, two extra N-terminal residues (Ala-Met)] |  | 1.25 |  |  |
